Here are results for 1 molecule from article PMC5218480 (PLoS ONE, 2017).

This experiment relates to MV-4-11 cells. Briefly: Gene expression microarray analysis (Affymetrix PrimeView) and GSEA. The format is cell-based, human. Also noted: RFU PODN (11730768_x_at) / Fold change /veh PODN (11730768_x_at) / RFU LINC00158 (11744669_a_at) / Fold change /veh LINC00158 (11744669_a_at) / RFU DUSP10 (11751237_a_at) / Fold change /veh DUSP10 (11751237_a_at) / RFU ID3 (11757404_x_at) / Fold change /veh ID3 (11757404_x_at) / RFU PLEKHG5 (11737974_s_at) / Fold change /veh PLEKHG5 (11737974_s_at) / RFU LRRC4B (11730491_at) / Fold change /veh LRRC4B (11730491_at) / RFU GIMAP4 (11747438_a_at) / Fold change /veh GIMAP4 (11747438_a_at) / RFU KRT8 (11758183_x_at) / Fold change /veh KRT8 (11758183_x_at) / RFU CNN1 (11734310_a_at) / Fold change /veh CNN1 (11734310_a_at) / RFU VPS37D (11726825_at) / Fold change /veh VPS37D (11726825_at) / RFU C10orf10 (11716522_x_at) / Fold change /veh C10orf10 (11716522_x_at) / RFU KIR2DL2 /// KIR2DL4 /// KIR2DL5A /// KIR2DL5B /// KIR2DS1 /// KIR2DS2 /// KIR2DS3 /// KIR2DS4 /// KIR3DL3 /// KIR3DL3 /// KIR3DS1 (11738374_at) / Fold change /veh KIR2DL2 /// KIR2DL4 /// KIR2DL5A /// KIR2DL5B /// KIR2DS1 /// KIR2DS2 /// KIR2DS3 /// KIR2DS4 /// KIR3DL3 /// KIR3DL3 /// KIR3DS1 (11738374_at) / RFU C1QL1 (11718748_at) / Fold change /veh C1QL1 (11718748_at) / RFU TMPRSS4 (11747572_a_at) / Fold change /veh TMPRSS4 (11747572_a_at) / RFU HAMP (11756126_x_at) / Fold change /veh HAMP (11756126_x_at) / RFU RNFT2 (11725882_a_at) / Fold change /veh RNFT2 (11725882_a_at) / RFU NR4A2 (11747474_a_at) / Fold change /veh NR4A2 (11747474_a_at) / RFU ABCC12 (11746883_a_at) / Fold change /veh ABCC12 (11746883_a_at) / RFU TMEM136 (11760407_x_at) / Fold change /veh TMEM136 (11760407_x_at) / RFU CLDN22 /// WWC2 (11732394_at) / Fold change /veh CLDN22 /// WWC2 (11732394_at) / RFU HLA-DPB1 (11760878_x_at) / Fold change /veh HLA-DPB1 (11760878_x_at) / RFU SPINT1 (11716480_a_at) / Fold change /veh SPINT1 (11716480_a_at) / RFU GAP43 (11754022_s_at) / Fold change /veh GAP43 (11754022_s_at) / RFU A4GNT (11735810_at) / Fold change /veh A4GNT (11735810_at) / RFU PRB3 (11715151_x_at) / Fold change /veh PRB3 (11715151_x_at) / RFU TUBB4B (11761932_at) / Fold change /veh TUBB4B (11761932_at) / RFU CAPN14 (11732068_a_at) / Fold change /veh CAPN14 (11732068_a_at) / RFU TMCC2 (11721928_a_at) / Fold change /veh TMCC2 (11721928_a_at) / RFU IRGQ (11745062_a_at) / Fold change /veh IRGQ (11745062_a_at) / RFU FAM174B (11720279_a_at) / Fold change /veh FAM174B (11720279_a_at) / RFU TMPRSS4 (11748680_a_at) / Fold change /veh TMPRSS4 (11748680_a_at) / RFU FAM212B (11763350_a_at) / Fold change /veh FAM212B (11763350_a_at) / RFU PLEKHG5 (11743358_a_at) / Fold change /veh PLEKHG5 (11743358_a_at) / RFU ZSCAN30 (11745921_a_at) / Fold change /veh ZSCAN30 (11745921_a_at) / RFU CMKLR1 (11741424_a_at) / Fold change /veh CMKLR1 (11741424_a_at) / RFU LOC101060620 /// MAPK8IP1 (11723275_at) / Fold change /veh LOC101060620 /// MAPK8IP1 (11723275_at) / RFU SPTSSB (11747773_x_at) / Fold change /veh SPTSSB (11747773_x_at) / RFU PRSS12 (11739890_at) / Fold change /veh PRSS12 (11739890_at) / RFU BIN1 (11741810_x_at) / Fold change /veh BIN1 (11741810_x_at) / RFU WNT11 (11732464_a_at) / Fold change /veh WNT11 (11732464_a_at) / RFU C10orf10 (11716521_a_at) / Fold change /veh C10orf10 (11716521_a_at) / RFU C5orf56 (11738089_at) / Fold change /veh C5orf56 (11738089_at) / RFU CYB561 (11721691_x_at) / Fold change /veh CYB561 (11721691_x_at) / RFU ANKRD19P (11752326_a_at) / Fold change /veh ANKRD19P (11752326_a_at) / RFU OR2T12 /// OR2T33 /// OR2T8 (11738714_s_at) / Fold change /veh OR2T12 /// OR2T33 /// OR2T8 (11738714_s_at) / RFU VCAN (11748164_a_at) / Fold change /veh VCAN (11748164_a_at) / RFU JSRP1 (11732532_at) / Fold change /veh JSRP1 (11732532_at) / RFU KRTAP10-11 (11738290_x_at) / Fold change /veh KRTAP10-11 (11738290_x_at) / RFU MYO3A (11730013_a_at) / Fold change /veh MYO3A (11730013_a_at) / RFU EBF3 (11725865_a_at) / Fold change /veh EBF3 (11725865_a_at) / RFU CAMK2N1 (11719241_x_at) / Fold change /veh CAMK2N1 (11719241_x_at) / RFU C5orf56 (11738088_a_at) / Fold change /veh C5orf56 (11738088_a_at) / RFU OLFML3 (11715873_a_at) / Fold change /veh OLFML3 (11715873_a_at) / RFU LOC100653217 /// NTM (11731650_a_at) / Fold change /veh LOC100653217 /// NTM (11731650_a_at) / RFU MAPK11 (11762145_a_at) / Fold change /veh MAPK11 (11762145_a_at) / RFU FIZ1 (11724087_x_at) / Fold change /veh FIZ1 (11724087_x_at) / RFU OASL (11726364_x_at) / Fold change /veh OASL (11726364_x_at) / RFU SOX15 (11748057_x_at) / Fold change /veh SOX15 (11748057_x_at) / RFU CD79A (11719716_a_at) / Fold change /veh CD79A (11719716_a_at) / RFU HIST1H1D (11736915_at) / Fold change /veh HIST1H1D (11736915_at) / RFU CASKIN2 (11723855_a_at) / Fold change /veh CASKIN2 (11723855_a_at) / RFU LOC730098 (11760151_x_at) / Fold change /veh LOC730098 (11760151_x_at) / RFU OR4N2 (11742367_at) / Fold change /veh OR4N2 (11742367_at) / RFU PRRT2 (11749266_a_at) / Fold change /veh PRRT2 (11749266_a_at) / RFU SNX32 (11753110_a_at) / Fold change /veh SNX32 (11753110_a_at) / RFU CDHR5 (11726645_a_at) / Fold change /veh CDHR5 (11726645_a_at) / RFU RCAN1 (11760418_a_at) / Fold change /veh RCAN1 (11760418_a_at) / RFU FAM167A (11723789_a_at) / Fold change /veh FAM167A (11723789_a_at) / RFU FAM26E (11764081_at) / Fold change /veh FAM26E (11764081_at) / RFU ISYNA1 (11749810_s_at) / Fold change /veh ISYNA1 (11749810_s_at) / RFU ACY1 (11761880_at) / Fold change /veh ACY1 (11761880_at) / RFU 11764098_at / Fold change /veh 11764098_at / RFU SAMD14 (11745864_x_at) / Fold change /veh SAMD14 (11745864_x_at) / RFU NPB (11741838_a_at) / Fold change /veh NPB (11741838_a_at) / RFU TMPRSS6 (11731388_a_at) / Fold change /veh TMPRSS6 (11731388_a_at) / RFU KRTAP10-2 (11738614_at) / Fold change /veh KRTAP10-2 (11738614_at) / RFU ARHGAP8 /// PRR5-ARHGAP8 (11727945_x_at) / Fold change /veh ARHGAP8 /// PRR5-ARHGAP8 (11727945_x_at) / RFU KRTAP5-7 /// NADSYN1 (11734609_at) / Fold change /veh KRTAP5-7 /// NADSYN1 (11734609_at) / RFU RASL12 (11751679_a_at) / Fold change /veh RASL12 (11751679_a_at) / RFU CDKN2B (11736163_a_at) / Fold change /veh CDKN2B (11736163_a_at) / RFU PRF1 (11729649_at) / Fold change /veh PRF1 (11729649_at) / RFU, ZNF638 /// ZNF638-IT1 / Fold change vs veh, ZNF638 /// ZNF638-IT1 / RFU, PANK3 / Fold change vs veh, PANK3 / RFU, SH3YL1 / Fold change vs veh, SH3YL1 / RFU, ZEB2 / Fold change vs veh, ZEB2 / RFU, NRIP1 / Fold change vs veh, NRIP1 / RFU, PTTG1IP / Fold change vs veh, PTTG1IP / RFU, CAPN2 / Fold change vs veh, CAPN2 / RFU, MED14 / Fold change vs veh, MED14 / RFU, SNORA58 / Fold change vs veh, SNORA58 / RFU, C1orf63 / Fold change vs veh, C1orf63 / RFU, LRRFIP1 / Fold change vs veh, LRRFIP1 / RFU, NDUFAF7 / Fold change vs veh, NDUFAF7 / RFU, SLC12A2 / Fold change vs veh, SLC12A2 / RFU, IBTK / Fold change vs veh, IBTK / RFU, ESF1 / Fold change vs veh, ESF1 / Fold change vs veh, TMEM50B / RFU, TAOK1 / Fold change vs veh, TAOK1 / RFU, ACBD3 / Fold change vs veh, ACBD3 / RFU, TMA16 / Fold change vs veh, TMA16 / RFU, RWDD3 / Fold change vs veh, RWDD3 / RFU, BCAT1 / Fold change vs veh, BCAT1 / RFU, EDEM3 / Fold change vs veh, EDEM3 / RFU, TMEM33 / Fold change vs veh, TMEM33 / RFU, WDR75 / Fold change vs veh, WDR75 / RFU, AHCTF1 / Fold change vs veh, AHCTF1 / RFU, TFRC / Fold change vs veh, TFRC / RFU, ZDHHC17 / Fold change vs veh, ZDHHC17 / RFU, NOM1 / Fold change vs veh, NOM1 / RFU, ARL8B / Fold change vs veh, ARL8B / RFU, ZBTB11 / Fold change vs veh, ZBTB11 / RFU, TAMM41 / Fold change vs veh, TAMM41 / RFU, KIAA1704 /// LOC100996395 / Fold change vs veh, KIAA1704 /// LOC100996395 / RFU, ING1 / Fold change vs veh, ING1 / RFU, TRMT61B / Fold change vs veh, TRMT61B / RFU, FUBP3 / Fold change vs veh, FUBP3 / RFU, TP53 / Fold change vs veh, TP53 / RFU, TNKS2 / Fold change vs veh, TNKS2 / RFU, ZFP14 / Fold change vs veh, ZFP14 / RFU, ACTR2 / Fold change vs veh, ACTR2 / RFU, PPP3R1 / Fold change vs veh, PPP3R1 / RFU, PIK3R1 / Fold change vs veh, PIK3R1 / RFU, HNRNPA1 / Fold change vs veh, HNRNPA1 / RFU, RNF170 / Fold change vs veh, RNF170 / RFU, ZNF28 / Fold change vs veh, ZNF28 / RFU, RNGTT / Fold change vs veh, RNGTT / RFU, OGT / Fold change vs veh, OGT / RFU, BRD1 / Fold change vs veh, BRD1 / RFU, MARS / Fold change vs veh, MARS / RFU, ZNF655 / Fold change vs veh, ZNF655 / RFU, FAHD1 / Fold change vs veh, FAHD1 / RFU, BDP1 / Fold change vs veh, BDP1 / RFU, LRRCC1 / Fold change vs veh, LRRCC1 / RFU, ARID1A / Fold change vs veh, ARID1A / RFU, ZNF146 / Fold change vs veh, ZNF146 / RFU, ZNF330 / Fold change vs veh, ZNF330 / RFU, GPN3 / Fold change vs veh, GPN3 / RFU, C9orf123 / Fold change vs veh, C9orf123 / RFU, N4BP2L2 / Fold change vs veh, N4BP2L2 / RFU, ARFIP1 / Fold change vs veh, ARFIP1 / RFU, FAM179B / Fold change vs veh, FAM179B / RFU, BCL10 / Fold change vs veh, BCL10 / RFU, UHRF1BP1L / Fold change vs veh, UHRF1BP1L / RFU, BET1 / Fold change vs veh, BET1 / RFU, CNOT2 / Fold change vs veh, CNOT2 / RFU, ZNF268 / Fold change vs veh, ZNF268 / Fold change vs veh, ZNF507 / RFU, DGCR2 / Fold change vs veh, DGCR2 / RFU, WDSUB1 / Fold change vs veh, WDSUB1 / Fold change vs veh, HSP90B1 /// MIR3652 / RFU, ADSS / Fold change vs veh, ADSS / RFU, GK / Fold change vs veh, GK / RFU, ZNF148 / Fold change vs veh, ZNF148 / RFU, TAF9 / Fold change vs veh, TAF9 / RFU, SLC1A5 / Fold change vs veh, SLC1A5 / RFU, SLMO2 / Fold change vs veh, SLMO2 / RFU, ABCC4 / Fold change vs veh, ABCC4 / RFU, LOC101060439 /// RAP1B / Fold change vs veh, LOC101060439 /// RAP1B / RFU, RFX7 / Fold change vs veh, RFX7 / RFU, GTPBP10 / Fold change vs veh, GTPBP10 / RFU, CNEP1R1 / Fold change vs veh, CNEP1R1 / RFU, BIVM-ERCC5 /// ERCC5 / Fold change vs veh, BIVM-ERCC5 /// ERCC5 / RFU, ILF3 / Fold change vs veh, ILF3 / RFU 11762660_at / Fold change /veh 11762660_at / RFU VCAN (11757783_s_at) / Fold change /veh VCAN (11757783_s_at) / RFU DDX43 (11728927_at) / Fold change /veh DDX43 (11728927_at) / RFU KRT8 (11758188_x_at) / Fold change /veh KRT8 (11758188_x_at) / RFU NKD1 (11759106_at) / Fold change /veh NKD1 (11759106_at) / RFU SRD5A1 (11742802_a_at) / Fold change /veh SRD5A1 (11742802_a_at) / RFU TPSAB1 /// TPSB2 (11721975_s_at) / Fold change /veh TPSAB1 /// TPSB2 (11721975_s_at) / RFU GSTM3 (11746129_a_at) / Fold change /veh GSTM3 (11746129_a_at) / RFU IL23R (11737362_x_at) / Fold change /veh IL23R (11737362_x_at) / RFU TMEM51 (11727254_a_at) / Fold change /veh TMEM51 (11727254_a_at) / RFU PIWIL2 (11732686_x_at) / Fold change /veh PIWIL2 (11732686_x_at) / RFU ORM1 (11744905_x_at) / Fold change /veh ORM1 (11744905_x_at) / RFU CCDC152 (11743942_at) / Fold change /veh CCDC152 (11743942_at) / RFU ECM1 (11717891_a_at) / Fold change /veh ECM1 (11717891_a_at) / RFU IL23R (11748794_a_at) / Fold change /veh IL23R (11748794_a_at) / RFU TNFAIP8L3 (11732012_x_at) / Fold change /veh TNFAIP8L3 (11732012_x_at) / RFU MBOAT4 (11741988_at) / Fold change /veh MBOAT4 (11741988_at) / RFU 11764193_at / Fold change /veh 11764193_at / RFU TMEM53 (11763286_at) / Fold change /veh TMEM53 (11763286_at) / RFU MAGEB2 (11727129_at) / Fold change /veh MAGEB2 (11727129_at) / RFU TMEM200A (11744735_a_at) / Fold change /veh TMEM200A (11744735_a_at) / RFU CCDC152 (11751479_a_at) / Fold change /veh CCDC152 (11751479_a_at) / RFU FAM211A (11726209_a_at) / Fold change /veh FAM211A (11726209_a_at) / RFU RGS16 (11746705_a_at) / Fold change /veh RGS16 (11746705_a_at) / RFU VCAN (11755009_s_at) / Fold change /veh VCAN (11755009_s_at) / RFU RHOB (11743442_s_at) / Fold change /veh RHOB (11743442_s_at) / RFU RGS16 (11720943_a_at) / Fold change /veh RGS16 (11720943_a_at) / RFU RGS16 (11720944_at) / Fold change /veh RGS16 (11720944_at) / RFU, VPS4B / Fold change vs veh, VPS4B / RFU, CREB1 / Fold change vs veh, CREB1 / RFU, DNAJC13 / Fold change vs veh, DNAJC13 / RFU, GNAQ / Fold change vs veh, GNAQ / RFU, CDK5R1 / Fold change vs veh, CDK5R1 / RFU, ZRANB3 / Fold change vs veh, ZRANB3 / RFU, CUL4A / Fold change vs veh, CUL4A / RFU, CCNY / Fold change vs veh, CCNY / RFU, UFL1 / Fold change vs veh, UFL1 / RFU, COG3 / Fold change vs veh, COG3 / RFU, DIAPH2 / Fold change vs veh, DIAPH2 / RFU, SKA2 / Fold change vs veh, SKA2 / RFU, AFF3 / Fold change vs veh, AFF3 / RFU, LMF1 / Fold change vs veh, LMF1 / RFU, IPO11 / Fold change vs veh, IPO11 / RFU, DFFB / Fold change vs veh, DFFB / RFU, FOXP1 / Fold change vs veh, FOXP1 / RFU, CARD8 / Fold change vs veh, CARD8 / RFU, STRN3 / Fold change vs veh, STRN3 / RFU, ADK / Fold change vs veh, ADK / RFU, RASSF2 / Fold change vs veh, RASSF2 / RFU, WIPF1 / Fold change vs veh, WIPF1 / RFU, LARP1B / Fold change vs veh, LARP1B / RFU, RASA1 / Fold change vs veh, RASA1 / RFU, RB1 / Fold change vs veh, RB1 / RFU, PPFIA1 / Fold change vs veh, PPFIA1 / RFU, MAT2A / Fold change vs veh, MAT2A / RFU, CCT5 / Fold change vs veh, CCT5 / RFU, WDR92 / Fold change vs veh, WDR92 / RFU, CUX1 / Fold change vs veh, CUX1 / RFU, TTC7A / Fold change vs veh, TTC7A / RFU, TMEM135 / Fold change vs veh, TMEM135 / RFU, DEPTOR / Fold change vs veh, DEPTOR / RFU, CPM / Fold change vs veh, CPM / RFU, DNAJB6 / Fold change vs veh, DNAJB6 / RFU, CACNA2D3 / Fold change vs veh, CACNA2D3 / RFU, DTX4 / Fold change vs veh, DTX4 / RFU, TFCP2 / Fold change vs veh, TFCP2 / RFU, GMCL1 /// GMCL1P1 / Fold change vs veh, GMCL1 /// GMCL1P1 / RFU, AEBP2 / Fold change vs veh, AEBP2 / RFU, SNHG1 /// SNORD22 /// SNORD25 /// SNORD26 /// SNORD27 /// SNORD28 /// SNORD29 /// SNORD31 / Fold change vs veh, SNHG1 /// SNORD22 /// SNORD25 /// SNORD26 /// SNORD27 /// SNORD28 /// SNORD29 /// SNORD31 / Fold change (Aza/veh), C12orf56 (ProbeSet 11735607_a_at) / Fold change (ACY-1035/veh), C12orf56 (ProbeSet 11735607_a_at) / Fold change (Aza/veh), FGFR1OP (ProbeSet 11751329_s_at) / Fold change (ACY-1035/veh), FGFR1OP (ProbeSet 11751329_s_at) / Fold change (Aza/veh), VPS36 (ProbeSet 11739960_a_at) / Fold change (ACY-1035/veh), VPS36 (ProbeSet 11739960_a_at) / RFU SYPL1 (11715823_x_at) / Fold change /veh SYPL1 (11715823_x_at) / RFU IGFBP7 (11715501_s_at) / Fold change /veh IGFBP7 (11715501_s_at) / RFU REEP3 (11722064_at) / Fold change /veh REEP3 (11722064_at) / RFU IGLL1 (11728026_x_at) / Fold change /veh IGLL1 (11728026_x_at): dose or concentration left out as unconfirmed. The settings on record: MV-4-11 cells, 48 hours.

Turning to `Nc1ccc(-c2cccs2)cc1NC(=O)c1ccc2c(c1)cc(C1CC1)n2CCN1CCOCC1` [ACY-1035], the “Fold change /veh FAM212B (11763350_a_at)” value was determined as 1.09.
